From patent US20020142944A1, “Treatment of ocular disorders” (Erasmus Universiteit Rotterdam, priority 1999, published 2002)

How the values were obtained:
[1] = test system: bilateral cystoid macular edema; assay: Treatment of cystoid macular edema, single patient; type: in vivo, human; conditions: for effect on the edema or visual acuity: previous therapy before octreotide, eye drops / peribulbar injections
Procedure: One year later, they noticed blurred vision. Their visual acuity was 20/50 in the right eye and 20/40 in the left eye (by Snellen chart). […] Their visual acuity slowly deteriorated in the subsequent years. […] They had no family history of macular edema. […] The injections were stopped four weeks later, because there was no further improvement.
Treatment with 100 μg or octreotide subcutaneously once daily was resumed. […] […] stopped treatment a second time; after four weeks […] visual acuity was 20/70 in the right eye and 20/50 in the left eye. Octreotide therapy was resumed, and four weeks later […] visual acuity was 20/40 in each eye.

[2] = test system: refractory CME due to chronic uveitis; assay: Octreotide treatment of 10 patients with refractory CME due to chronic uveitis, three months; type: in vivo, human
Procedure: Patients were treated in accordance to the declaration of Helsinki. In this study, 10 consecutive patients from the Department of Ophthalmology, Erasmus University Medical Center, and the Eye Hospital Rotterdam, were selected because of refractory CME due to chronic uveitis. Since CME in uveitis can be influenced in time by multiple factors, only patients suffering from macular edema for more than 6 months were included, regardless of their immune suppressive treatment. Six patients had bilateral CME and four patients unilateral. Three patients with pars planitis needed no treatment for their inflammation but still had marked CME. Fluorescein angiography was performed within one week before starting octreotide treatment. Octreotide therapy was given after informed consent had been obtained. Dosage was started with 100 μg subcutaneously, on the first day, two times 100 μg on the second day and three times 100 μg from the third day onwards. When possible, the long-acting repeatable (LAR) formulation was prescribed in a dosage of 20 mg per 4 weeks intramuscularly, which became available during the studies. The dose of patient 3, a child, was adjusted for their age to 10 mg per month (im). Immune suppressive treatment was adjusted as based on inflammatory activity. Visual acuity was measured after 2, 4, and 12 weeks of treatment. Fluorescein angiography was repeated after three months of treatment.

[3] = after three months of treatment
[4] = three months therapy, 10 patients
[5] = after eight weeks of 100 μg subcutaneously three times daily, before treatment 20/100 in each eye
[6] = four weeks after second stop of treatment
[7] = three months after resuming 100 μg subcutaneously once daily
[8] = within two weeks after first stop of injections

Structure (SMILES): CC(=O)Nc1nnc(S(N)(=O)=O)s1 [acetazolamide]
- effect on the edema or visual acuity [1]: without beneficial effect

Structure (SMILES): C[C@H]1C[C@H]2[C@@H]3CCC4=CC(=O)C=C[C@]4(C)[C@@]3(F)[C@@H](O)C[C@]2(C)[C@@]1(O)C(=O)CO [betamehtasone, betamethasone]
- effect on the edema or visual acuity [1]: without beneficial effect

Structure (SMILES): O=C(O)Cc1ccccc1Nc1c(Cl)cccc1Cl [diclofenac]
- effect on the edema or visual acuity [1]: without beneficial effect

Structure (SMILES): CCOC(=O)[C@H](CCc1ccccc1)N[C@@H](C)C(=O)N1CCC[C@H]1C(=O)O [enalapril]
- effect on the edema or visual acuity [1]: without beneficial effect

Structure (SMILES): C[C@@H](O)[C@@H]1NC(=O)[C@H](CCCCN)NC(=O)[C@@H](Cc2c[nH]c3ccccc23)NC(=O)[C@H](Cc2ccccc2)NC(=O)[C@@H](NC(=O)[C@H](N)Cc2ccccc2)CSSC[C@@H](C(=O)N[C@H](CO)[C@@H](C)O)NC1=O [octreotide]
- fluorescein angiographic macular edema clearly diminished [2, 3]: 3 eyes
- fluorescein angiographic macular edema diminished but still visible [2, 3]: 9 eyes
- fluorescein angiographic macular edema unaltered [2, 3]: 3 eyes
- ocular hypertension ([2]; at week 4, 10 patients): one
- diarrhoea (only side effect observed) ([2]; during the first days of treatment, 10 patients): 4 patients
- patients in whom visual acuity or inflammation activity deteriorated [2, 4]: none
- patients with decreased inflammation, leading to tapered immunosuppressive therapy [2, 4]: Four
- CME dissolved by stereoscopic examination ([2]; three months therapy, 10 patients, six bilateral and four unilateral CME): 5 eyes
- CME diminished by stereoscopic examination ([2]; three months therapy, further eyes beside those dissolved): 11 eyes
- ophthalmoscopic finding, cystoid lesions ([1]; after eight weeks of 100 μg subcutaneously three times daily): the cysts had dried
- visual acuity in the left eye (Snellen chart) [1, 5]: 20/50
- visual acuity in the right eye (Snellen chart) [1, 5]: 20/40
- visual change noted by the patient ([1]; after six weeks of 100 μg subcutaneously three times daily): visual improvement
- visual acuity in each eye ([1]; four weeks after second resumption of therapy): 20/40
- visual acuity in the left eye after stopping treatment [1, 6]: 20/50
- visual acuity in the right eye after stopping treatment [1, 6]: 20/70
- fluorescein angiography finding [1, 7]: some foveal fluorascein leakage
- visual acuity in each eye [1, 7]: 20/40
- side effects from the treatment ([1]; whole course of treatment): no side effects
- ophthalmoscopic finding after stopping treatment [1, 8]: some fluid was observed
- visual acuity in each eye after stopping treatment [1, 8]: 10/50
